molecular target: B-Raf (V600E)-kinase (Homo sapiens, UniProt P15056, V600E); test: Kinase test B-Raf (V600E); format: biochemical; conditions: compound concentration 2 μM; 100% = no inhibition, 0% = total inhibition; read-out: % CTL (residual activity of the enzyme relative to DMSO control)
Procedure, shortened: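 Kinase preincubated with compound (typically 2 μM to 0.119 nM or 0.017 nM, 5% DMSO) 1 h at RT, then reacted 60 min at RT with 250 μM ATP and biotinylated MEK1. Phospho-MEK (Ser217/221) captured on streptavidin, detected by europium time-resolved fluorescence; IC50 from dose-response curves.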

Sequence of B-Raf (V600E)-kinase (P15056 whole entry V600E): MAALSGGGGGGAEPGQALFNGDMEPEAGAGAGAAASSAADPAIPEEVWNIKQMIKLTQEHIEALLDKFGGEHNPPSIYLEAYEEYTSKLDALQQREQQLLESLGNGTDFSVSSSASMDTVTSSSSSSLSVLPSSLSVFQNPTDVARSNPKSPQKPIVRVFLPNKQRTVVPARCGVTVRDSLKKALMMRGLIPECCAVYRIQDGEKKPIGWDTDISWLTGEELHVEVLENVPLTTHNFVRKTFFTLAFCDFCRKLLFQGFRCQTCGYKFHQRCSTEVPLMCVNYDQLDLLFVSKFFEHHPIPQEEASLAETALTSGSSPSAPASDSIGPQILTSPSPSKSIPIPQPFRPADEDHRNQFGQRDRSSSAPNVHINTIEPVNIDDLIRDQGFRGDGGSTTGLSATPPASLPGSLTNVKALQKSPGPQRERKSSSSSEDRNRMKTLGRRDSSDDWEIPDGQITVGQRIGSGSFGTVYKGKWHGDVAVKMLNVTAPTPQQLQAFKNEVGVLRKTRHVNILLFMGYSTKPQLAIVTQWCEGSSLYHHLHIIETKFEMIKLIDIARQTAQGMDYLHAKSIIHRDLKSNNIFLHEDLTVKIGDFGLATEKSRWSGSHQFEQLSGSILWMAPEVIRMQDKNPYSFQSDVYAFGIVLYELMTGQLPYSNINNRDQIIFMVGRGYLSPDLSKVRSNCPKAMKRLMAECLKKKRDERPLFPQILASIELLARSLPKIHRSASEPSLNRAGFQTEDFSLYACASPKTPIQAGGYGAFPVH

Row | remaining activity at 2 µM | Compound
1 | 1.7% | Cc1ncc(NC(=O)c2cc(C(F)(F)F)ccn2)cc1-n1cc(-c2cncc(N3CCN(C(C)C)CC3)c2)nn1 [XII-35]
2 | 1.3% | Cc1ncc(NC(=O)c2cccc(OC(F)(F)F)c2)cc1-n1cc(-c2cncc(N3CCN(C)CC3)c2)nn1 [XII-36]
3 | 2.3% | Cc1ncc(NC(=O)c2cc(C(F)(F)F)ccn2)cc1-n1cc(-c2cncc(N3CCN(CC(C)C)CC3)c2)nn1 [XII-37]
4 | 2.1% | CCN1CCN(c2cncc(-c3cn(-c4cc(NC(=O)c5cc(C(F)(F)F)ccn5)cnc4C)nn3)c2)CC1 [XII-38]
5 | 2.5% | CCN1CCN(c2cncc(-c3cn(-c4cc(NC(=O)c5ccc(OC)c(C(F)(F)F)c5)cnc4C)nn3)c2)CC1 [XII-39]
6 | 3.1% | CCCN1CCN(c2cncc(-c3cn(-c4cc(NC(=O)c5cc(C(F)(F)F)ccn5)cnc4C)nn3)c2)CC1 [XII-41]
7 | 2.1% | COc1ccc(C(=O)Nc2cnc(C)c(-n3cc(-c4cncc(N5CCN(C(C)C)CC5)c4)nn3)c2)cc1C(F)(F)F [XII-43]
8 | 1.9% | CCOCCN1CCN(c2cncc(-c3cn(-c4cc(NC(=O)c5ccc(OC)c(C(F)(F)F)c5)cnc4C)nn3)c2)CC1 [XII-44]
9 | 1.8% | COCCCN1CCN(c2cncc(-c3cn(-c4cc(NC(=O)c5ccc(OC)c(C(F)(F)F)c5)cnc4C)nn3)c2)CC1 [XII-46]
10 | 2.4% | COCCCN1CCN(c2cncc(-c3cn(-c4cc(NC(=O)c5cccc(OC(F)(F)F)c5)cnc4C)nn3)c2)CC1 [XII-48]
11 | 2.3% | CCN1CCN(c2cncc(-c3cn(-c4cc(NC(=O)c5cccc(C(C)(C)C#N)c5)cnc4C)nn3)c2)CC1 [XII-51]
12 | 10.8% | CCOCCN1CCN(c2cncc(-c3cn(-c4cc(NC(=O)c5cccc(OC(F)(F)F)c5)cnc4C)nn3)c2)CC1 [XII-54]
13 | 1.8% | CCN1CCN(c2cncc(-c3cn(-c4cc(NC(=O)c5cccc(OC(F)(F)F)c5)cnc4C)nn3)c2)CC1 [XII-55]
14 | 0.9% | Cc1ncc(NC(=O)c2cc(C(F)(F)F)ccn2)cc1-n1cc(-c2cncc(N3CCN(C)CC3)c2)nn1 [XII-57]

Further lines, the molecule ahead of its results:

Row | Compound | remaining activity at 2 µM
15 | Cc1ncc(NC(=O)c2cccc(OC(F)(F)F)c2)cc1-n1cc(-c2cncc(N3CCN(C(C)C)CC3)c2)nn1 [XII-42] | 4.3%
16 | COc1ccc(C(=O)Nc2cnc(C)c(-n3cc(-c4cncc(N5CCN(C(C)(C)C)CC5)c4)nn3)c2)cc1C(F)(F)F [XII-45] | 2.9%
17 | Cc1ncc(NC(=O)c2cccc(OC(F)(F)F)c2)cc1-n1cc(-c2cncc(N3CCN(C(C)(C)C)CC3)c2)nn1 [XII-47] | 4%
18 | Cc1ncc(NC(=O)c2cccc(C(C)(C)C#N)c2)cc1-n1cc(-c2cncc(N3CCN(CC4CC4)CC3)c2)nn1 [XII-49] | 2.3%
19 | Cc1ncc(NC(=O)c2cccc(C(C)(C)C#N)c2)cc1-n1cc(-c2cncc(N3CCN(C(C)C)CC3)c2)nn1 [XII-50] | 6.8%
20 | Cc1ncc(NC(=O)c2cccc(C(C)(C)C#N)c2)cc1-n1cc(-c2cncc(NCCN(C)C)c2)nn1 [XII-52] | 7%
21 | Cc1ncc(NC(=O)c2cccc(C(C)(C)C#N)c2)cc1-n1cc(-c2cncc(N(C)CCN(C)C)c2)nn1 [XII-53] | 7%
22 | Cc1ncc(NC(=O)c2cccc(C(C)(C)C#N)c2)cc1-n1cc(-c2cncc(CO)c2)nn1 [XII-63] | 3.8%
23 | Cc1ncc(NC(=O)c2cccc(C(C)(C)C#N)c2)cc1-n1cc(-c2cncc(CN(C)C)c2)nn1 [XII-64] | 0.9%
24 | Cc1ncc(NC(=O)c2cccc(C(C)(C)C#N)c2)cc1-n1cc(-c2cncc(CN3CCCC3)c2)nn1 [XII-65] | 0.9%

same assay, conditions: measurement at 0.29 μM (*); 100% = no inhibition, 0% = total inhibition; read-out: % CTL (residual activity of the enzyme relative to DMSO control)

Row | remaining activity at 0.29 µM | Compound
25 | 3% | COc1ccc(C(=O)Nc2cnc(C)c(-n3cc(-c4cncc(N5CCN(C)CC5)c4)nn3)c2)cc1C(F)(F)F [XII-40]

Reference: patent publication US8778929B2, “Substituted heteroaryl inhibitors of B-RAF” (Boehringer Ingelheim International GmbH, priority 2008, dated 2014)
